Measured values published in ChEMBL document CHEMBL1121980, “beta-adrenergic blocking agents. 24. Heterocyclic substituted 1-(aryloxy)-3-[[(amido)alkyl]amino]propan-2-ols” (1982).

What was measured:
Format in all cases: functional
[1] = species on record: Felis catus; assay: The compound was evaluated for inhibition of depressor response.; set-up: concentration or dose not given beside the values
[2] = tested on: Felis catus; assay: In vivo beta adrenoceptor blocking potency was determined by inhibition of tachycardia in cat
[3] = species on record: Felis catus; assay: The compound was evaluated for inhibition of depressor response

SMILES | Inhibition [1] [%] | ED50 [2] [mg/kg] | Inhibition [3] [%]
O=C(NCCNCC(O)COc1cccc2c1OCCO2)c1cccs1 (configuration not stated) | 40 |  | 
O=C(NCCNCC(O)COc1cccc2c1OCCO2)Nc1ccccc1 (configuration not stated) | 0 | 0.111 | 
CC(=O)Nc1ccc(OCC(O)CNC(C)C)cc1 (configuration not stated) [PRACTOLOL] |  | 0.167 | 8
NC(=O)c1ccccc1OCC(O)CNCCNC(=O)c1cccs1 (configuration not stated) | 0 | 0.461 | 
N#Cc1ccccc1OCC(O)CNCCNC(=O)Cc1cc2ccccc2[nH]1 (configuration not stated) | 6 | 0.049 | 
N#Cc1ccccc1OCC(O)CNCCNC(=O)Cc1csc(-c2ccc(Cl)cc2)n1 (configuration not stated) | 0 | 0.087 | 
N#Cc1ccccc1OCC(O)CNCCNC(=O)c1ccco1 (configuration not stated) | 28 | 0.272 | 
CC(C)NCC(O)COc1cccc2ccccc12 (configuration not stated) [PROPRANOLOL] | 85 | 0.062 | 
O=C(NCCNCC(O)COc1ccccc1)c1cccs1 (configuration not stated) | 28 | 0.104 | 
